Results: PMC9294463, “Green Synthesis of Thiazolidine-2,4-dione Derivatives and Their Lipoxygenase Inhibition Activity With QSAR and Molecular Docking Studies” (Frontiers in Chemistry, 2022)

Target: T1, soybean lipoxygenase (Glycine max, UniProt P08170)
T1 construct: gene LOX1.1
T1 sequence (P08170 1-839): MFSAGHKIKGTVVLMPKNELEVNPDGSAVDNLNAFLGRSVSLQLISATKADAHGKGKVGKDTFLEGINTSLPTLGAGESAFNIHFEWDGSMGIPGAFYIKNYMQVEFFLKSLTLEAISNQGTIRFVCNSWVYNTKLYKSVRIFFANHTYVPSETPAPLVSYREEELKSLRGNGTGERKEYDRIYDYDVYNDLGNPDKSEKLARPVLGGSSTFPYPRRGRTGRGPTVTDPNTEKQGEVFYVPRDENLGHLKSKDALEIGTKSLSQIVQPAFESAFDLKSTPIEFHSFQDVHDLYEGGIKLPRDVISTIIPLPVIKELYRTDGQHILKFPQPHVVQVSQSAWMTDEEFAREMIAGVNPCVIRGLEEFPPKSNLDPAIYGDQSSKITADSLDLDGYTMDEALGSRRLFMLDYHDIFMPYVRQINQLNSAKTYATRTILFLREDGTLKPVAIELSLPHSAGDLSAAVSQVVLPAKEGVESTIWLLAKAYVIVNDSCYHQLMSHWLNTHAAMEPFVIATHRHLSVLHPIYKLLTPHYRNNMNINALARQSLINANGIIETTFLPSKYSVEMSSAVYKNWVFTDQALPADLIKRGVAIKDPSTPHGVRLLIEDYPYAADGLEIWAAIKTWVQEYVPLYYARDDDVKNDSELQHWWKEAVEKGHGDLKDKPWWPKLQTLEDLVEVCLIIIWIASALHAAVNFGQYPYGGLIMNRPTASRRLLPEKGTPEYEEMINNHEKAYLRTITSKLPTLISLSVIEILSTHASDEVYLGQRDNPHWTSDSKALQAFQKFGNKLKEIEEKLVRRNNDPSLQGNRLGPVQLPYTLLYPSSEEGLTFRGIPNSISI
Assay: soybean lipoxygenase inhibition assay, % inhibition at […] (standard)
Format: biochemical

SMILES: C[C@H](Cc1ccc(O)c(O)c1)[C@@H](C)Cc1ccc(O)c(O)c1 [NDGA, nordihydroguaiaretic acid]
- inhibition at 100 µM: 80.8%
